Assay results reported in article PMC10714400, “Antimicrobial Peptide–Peptoid Hybrids with and without Membrane Disruption” (ACS Infectious Diseases, 2023).
“Also recorded” adds a separate entry of the source. Where a SMILES comes first, the peptide text is derived from it. [ ]: non-standard residue; d: D form. Nleu = CC(C)CNCC(=O)O; Nlys = NCCCCNCC(=O)O

Tests used:
[1] = Lipid vesicle leakage assay; conditions: 10 mM TRIS, 107 mM NaCl, pH 7.4; for Vesicle leakage activity on EYPC vesicles: egg yolk phosphatidyl choline vesicles; for Vesicle leakage activity on EYPG vesicles: fluorescein-loaded anionic EYPG vesicles
Procedure: (c) Vesicle leakage assay for a selection of compounds.
EYPG - EB11 1 EYPC - EB11
Figure S2: Vesicle leakage experiments using 5(6)-carboxyfluorescein induced by peptides. EYPG and EYPC
compound was added after 45 sec. After 240 seconds, 30 µL Triton X-100 1.2% was added for full release of […]

[2] = test system: E. coli W3110; assay: NPN outer membrane permeability assay; assay type: cell-based, Escherichia coli
Procedure: (§1) Figure 4 Interactions of peptide–peptoid hybrids with bacterial outer and inner membranes of E. coli. (a, b) NPN outer membrane permeability assay. E. coli W3110 bacteria were treated with increasing compound concentrations in the presence of 10 μM NPN. The fluorescence intensity (λex = 340 nm, λem = 415 nm) was measured within 5 min. Data represent mean ± SD, n = 3. (c, d) DiSC3(5) inner membrane depolarization assay. E. coli W3110 bacteria were treated with increasing compound concentrations in the presence of 2 μM DiSC3(5). The fluorescence intensity (λex = 610 nm, λem = 660 nm) was measured within 5 min after treatment, and the data represent mean ± SD, n = 3.
(§2) A single colony of P. aeruginosa PAO1 and E. coli W3110 was grown overnight while being shaken (150 rpm) in LB-broth (5 mL) at 37 °C. 100 μL of the overnight culture was regrown in 10 mL of LB broth with shaking (200 rpm) to the exponential phase (OD600 = 1, corresponding to 10^9 CFU/mL). Bacteria were washed three times with HEPES buffer (5 mM HEPES, 5 mM glucose, pH 7.4), but not diluted yet to their final concentration. 200 μL of peptide samples was added to the first well of 96-well plates (black wells, flat bottom, BRAND GmbH Wertheim, Germany), 100 μL of HEPES/glucose buffer with 10 μM N-phenyl-1-naphthylamine (NPN, purchased from Acros Organics) was added in all the wells, and the compounds were diluted serially by 1/2 (add a control with a final volume of 200 μL with 10 μM NPN in buffer only). Ca. 10 min before the measurement and the final dilution of the bacteria, the plates and the 10 μM NPN in HEPES/glucose buffer (for bacteria dilution) were incubated at 37 °C (prior to the dilution of the bacteria with buffer containing NPN 10 μM). Later, the bacteria were diluted to OD600 = 0.5 with the NPN in HEPES/glucose buffer. 100 μL of the bacterial suspension was added to each well. In this case, the final OD of bacteria was 0.25, the final concentration of the desired compound 64 μg/mL, and NPN 10 μM. The control wells are buffer containing NPN (10 μM, 200 μL) and bacterial suspension containing NPN in HEPES buffer. The plate was measured with a Tecan instrument Infinite M1000 within 5 min. The plate was enabled to shake for 5 s before measurement. The excitation wavelength used was 340 ± 5 nm, and emission wavelength was 415 ± 5 nm. The assay was repeated at least three times.

[3] = test system: P. aeruginosa PAO1; assay: NPN outer membrane permeability assay; assay type: cell-based, Pseudomonas aeruginosa
Procedure: (§3) Figure 5 Interactions of peptide–peptoid hybrids with bacterial outer and inner membranes of P. aeruginosa. (a, b) NPN outer membrane permeability assay. P. aeruginosa PAO1 bacteria were treated with increasing compound concentrations in the presence of 10 μM NPN. The fluorescence intensity (λex = 340 nm, λem = 415 nm) was measured within 5 min. Data represent the mean ± SD, n = 3. (c, d) DiSC3(5) inner membrane depolarization assay. P. aeruginosa PAO1 cells were treated with increasing compound concentrations in the presence of 2 μM DiSC3(5). The fluorescence intensity (λex = 610 nm, λem = 660 nm) was measured within 5 min after treatment, and the data represent mean ± SD, n = 3.
as §2

[4] = test system: P. aeruginosa PAO1; assay: DiSC3(5) inner membrane depolarization assay; assay type: cell-based, Pseudomonas aeruginosa; conditions: P. aeruginosa PAO1, 2 μM DiSC3(5)
Procedure: as §3
(§4) A single colony of P. aeruginosa PAO1 and E. coli W3110 was grown overnight with shaking (150 rpm) in LB broth (5 mL) at 37 °C. A 100 μL portion of the overnight culture was regrown in 10 mL of LB broth with shaking (200 rpm) to the exponential phase (OD600 = 1, corresponding to 10^9 CFU/mL). Bacteria were washed once with HEPES buffer (5 mM HEPES, 5 mM glucose, pH 7.4) and diluted to an OD600 = 0.5. Stock solution of 10 mM of 3,3′-dipropylthiadicarbocyanine iodide (DiSC3(5), purchased from Sigma) was prepared in DMSO. Stock solutions of 2 mg/mL of the compounds were prepared in sterilized milli-Q water and diluted to the beginning concentration of 128 μg/mL in 200 μL of HEPES buffer containing 4 μM of the fluorescent probe DiSC3(5). The diluted samples were added to the first well of 96-well plates (black wells, flat bottom, BRAND GmbH Wertheim, Germany) and diluted serially by 1/2. 100 μL of the bacterial suspension in HEPES buffer (without fluorophore) was added to each well. In this case, the final OD of bacteria was 0.25, the final concentration of peptide in the first column was 64 μg/mL, and DiSC3(5) was 2 μM. The control wells are buffer containing DiSC3(5) and bacterial suspension containing DiSC3(5) in HEPES buffer. The plate was measured with a Tecan instrument Infinite M1000 within 5 min. […] The assay was measured in triplicate and repeated at least two times.[65],[75]

[5] = test system: E. coli W3110; assay: DiSC3(5) inner membrane depolarization assay; assay type: cell-based, Escherichia coli; conditions: E. coli W3110, 2 μM DiSC3(5)
Procedure: as §1, §4

[6] = test system: P. aeruginosa PAO1; assay: Time–kill assay; assay type: cell-based, Pseudomonas aeruginosa
Source text: Figure 1 Killing profile of selected compounds on bacteria a) against E. coli W3110 measured in full MH at pH 7.4, b) against P. aeruginosa PAO1 in full MH at pH 7.4, c) against E. coli W3110 in diluted MH at pH 8.5, and d) against P. aeruginosa PAO1 in dilute MH at pH 8.5. The assay was repeated twice in triplicate, and the data represent the mean ± SD, n = 6.

[7] = P. aeruginosa PAO1, dilute MH at pH 8.5

Compound | Vesicle leakage activity on EYPC vesicles [1] | Vesicle leakage activity on EYPG vesicles [1] | Outer membrane permeabilization (NPN) ([2]; not told) | Outer membrane permeabilization (NPN) ([3]; not told) | Inner membrane depolarization (DiSC3(5)) [4] | Inner membrane depolarization (DiSC3(5)) [5] | Time–kill, killing profile ([6]; P. aeruginosa PAO1, full MH at pH 7.4) | Time–kill, killing profile [6, 7] | Outer membrane permeabilization (NPN) ([2]; E. coli W3110, 10 μM NPN) | Outer membrane permeabilization (NPN) ([3]; P. aeruginosa PAO1, 10 μM NPN)
CC(C)C[C@H](NC(=O)[C@H](CCCCN)NC(=O)CNCCCCN)C(=O)N[C@@H](CC(C)C)C(=O)N[C@@H](CCCCN)C(=O)N[C@@H](CC(C)C)C(=O)N[C@@H](CC(C)C)C(=O)N[C@@H](CCCCN)C(=O)N[C@@H](CC(C)C)C(=O)N[C@@H](CC(C)C)C(=O)N(CC(N)=O)CC(C)C [EB1] (H-[Nlys]KLLKLLKLL[Nleu]-NH2; N-terminus assumed) | very low levels of activity | very strong activities |  |  |  |  |  |  |  | 
CC(C)C[C@H](NC(=O)[C@H](CC(C)C)NC(=O)[C@H](CC(C)C)NC(=O)[C@H](CCCCN)NC(=O)[C@H](CC(C)C)NC(=O)[C@H](CC(C)C)NC(=O)CN(CCCCN)C(=O)CN(CC(C)C)C(=O)CN(CC(C)C)C(=O)CN(CCCCN)C(=O)CNCCCCN)C(N)=O [EB5, kkllkLLKLLL] (H-[Nlys][Nlys][Nleu][Nleu][Nlys]LLKLLL-NH2) |  |  | permeabilized the outer membrane | permeabilized the outer membrane |  |  |  |  |  | 
CC(C)C[C@H](NC(=O)[C@H](CC(C)C)NC(=O)[C@H](CC(C)C)NC(=O)[C@H](CCCCN)NC(=O)[C@H](CC(C)C)NC(=O)[C@H](CC(C)C)NC(=O)CN(CCCCN)C(=O)[C@H](CC(C)C)NC(=O)[C@H](CC(C)C)NC(=O)CN(CCCCN)C(=O)CNCCCCN)C(N)=O [EB6, kkLLkLLKLLL] (H-[Nlys][Nlys]LL[Nlys]LLKLLL-NH2) | very low levels of activity | very strong activities | permeabilized the outer membrane | permeabilized the outer membrane | strongly depolarized the inner membrane | strongly depolarized the inner membrane | completely killed |  |  | 
CC(C)C[C@H](NC(=O)CN(CC(C)C)C(=O)[C@H](CC(C)C)NC(=O)CN(CCCCN)C(=O)[C@H](CC(C)C)NC(=O)CN(CC(C)C)C(=O)[C@H](CCCCN)NC(=O)CN(CC(C)C)C(=O)[C@H](CC(C)C)NC(=O)CN(CCCCN)C(=O)[C@@H](N)CCCCN)C(N)=O [EB9, KkLlKlLkLlL] (H-K[Nlys]L[Nleu]K[Nleu]L[Nlys]L[Nleu]L-NH2) | no activity | weak or no vesicle leakage activity; also recorded: inactive | significant outer membrane permeabilization | significant outer membrane permeabilization | partly depolarized the inner membrane | partly depolarized the inner membrane |  | killed P. aeruginosa, however at a rather slow rate |  | 
CC(C)CN(CC(N)=O)C(=O)CN(CC(C)C)C(=O)CN(CC(C)C)C(=O)CN(CCCCN)C(=O)CN(CC(C)C)C(=O)CN(CC(C)C)C(=O)CN(CCCCN)C(=O)CN(CC(C)C)C(=O)CN(CC(C)C)C(=O)CN(CCCCN)C(=O)CNCCCCN [EB11, kkllkllklll] (H-[Nlys][Nlys][Nleu][Nleu][Nlys][Nleu][Nleu][Nlys][Nleu][Nleu][Nleu]-NH2) | no activity | weak or no vesicle leakage activity |  |  | partly depolarized the inner membrane | partly depolarized the inner membrane |  | killed P. aeruginosa, however at a rather slow rate | significant outer membrane permeabilization | significant outer membrane permeabilization
